Patent US12097173B2, “Volatile organic compound formulations having antimicrobial activity” (priority 2019, dated 2024)

How the values were obtained:
Format in all cases: cell-based
[1] = test system: Sclerotinia sclerotiorum; assay: plate bioassay of volatile test mixtures, growth inhibition; conditions: for percent inhibition of the growth of Sclerotinia sclerotiorum: Table 4, 30 hr at room temperature, compared to control
Experimental: (§1) FIG. 1 illustrates a plate bioassay to determine the bioactivity of various esters when combined with a 1:1 mix of the two organic acids as per Table 2. The test organisms were as follows—Cercospora (dark-lower left bottom) then clockwise—Phytophthora, Verticillium, Sclerotinia, Pythium. Fusarium, Trichoderma, Rhizoctonia, and Aspergillus. The streaks were Saccharomyces (far right bottom) then Candida, E coli and Bacillus (left bottom). A=control plate, and B=plate with System 1 after incubation for 30 hr.
(§2) FIG. 9 depicts the biological activities of various test mixtures against a panel of test microbes. A small plug of each organism was placed in the periphery of the PDA plate. In the center well was placed the test solution in the plastic cup holder. A control plate (A) was also set up. After 30 hr the growth of the test organisms was compared to that of the control and the % inhibition was calculated. The (B) plate contained the test mixture. Measurements were made 30 hr after plate set up.
(§3) FIG. 1. Indicates how the assays were done to yield the data sets in Table 1. The various esters were combined with a 1:1 mixture of propanoic acid and isobutryic acid and these were added 7:2 V/V with the ester to be tested.
The tests were conducted over the course of 30 hr at 22° C. Measurements were made on appropriate controls and thus the percentage of inhibition calculations could be made on treatments vs the growth on a control organism (non-treated). The bacteria and yeast like organisms were evaluated on the basis of relative growth rates after 30 hr. […] The acids were added at […] individually and combination of the esters with the acids were added at the […] in the plate assay.
as §2, with “Tests were conducted as similarly described for Systems 1 and 2 above (FIG. 9) to ascertain” for “FIG. 9 depicts”

[2] = test system: Verticillium dahliae; assay: as above; conditions: for percent inhibition of the growth of Verticillium dahliae: Table 4, 30 hr at room temperature, compared to control
Experimental: as §1, §2, §3
(§4) Shown in Table 1, are the inhibition and killing effects of propanoic acid, and isobutryic acid together and alone and with various esters. The tests were conducted over the course of 30 hr at 22° C. Measurements were made on appropriate controls and thus the percentage of inhibition calculations could be made on treatments vs the growth on a control organism (non-treated). The bacteria and yeast like organisms were evaluated on the basis of relative growth rates after 30 hr. Those highlighted areas on the table show those compounds (esters) having the most compatibility with propanoic and isobutryic acid 1:1 v/v mixtures with the appropriate esters at a 7:2 ratio—Systems 1 and 2 above. It is from this test that Systems 1 and 2 were discovered. The acids were added at […] individually and combination of the esters with the acids were added at the […] in the plate assay.
as §2, with “Tests were conducted as similarly described for Systems 1 and 2 above (FIG. 9) to ascertain” for “FIG. 9 depicts”

[3] = test system: Rhizoctonia solani; assay: as above; conditions: for percent inhibition of the growth of Rhizoctonia solani: Table 4, 30 hr at room temperature, compared to control
Experimental: as §1, §2, §3, §4
as §2, with “Tests were conducted as similarly described for Systems 1 and 2 above (FIG. 9) to ascertain” for “FIG. 9 depicts”

[4] = test system: Phytophthora cinnamomi; assay: as above; conditions: for percent inhibition of the growth of Phytophthora cinnamomi: Table 4, 30 hr at room temperature, compared to control
Experimental: as §1, §2, §3, §4
as §2, with “Tests were conducted as similarly described for Systems 1 and 2 above (FIG. 9) to ascertain” for “FIG. 9 depicts”

[5] = test system: Pythium ultimum; assay: as above; conditions: for percent inhibition of the growth of Pythium ultimum: Table 4, 30 hr at room temperature, compared to control
Experimental: as §1, §2, §3, §4
as §2, with “Tests were conducted as similarly described for Systems 1 and 2 above (FIG. 9) to ascertain” for “FIG. 9 depicts”

[6] = test system: Trichoderma viridae; assay: as above; conditions: for percent inhibition of the growth of Trichoderma viridae: Table 4, 30 hr at room temperature, compared to control
Experimental: as §1, §2, §3, §4
as §2, with “Tests were conducted as similarly described for Systems 1 and 2 above (FIG. 9) to ascertain” for “FIG. 9 depicts”

[7] = test system: Cercospora beticola; assay: as above; conditions: for percent inhibition of the growth of Cercospora beticola: Table 4, 30 hr at room temperature, compared to control
Experimental: as §1, §2, §3, §4
as §2, with “Tests were conducted as similarly described for Systems 1 and 2 above (FIG. 9) to ascertain” for “FIG. 9 depicts”

[8] = test system: Bacillus subtilus; assay: plate bioassay of volatile test mixtures, relative growth of streak
Experimental: as §1, §2, §3, §4
as §2, with “Tests were conducted as similarly described for Systems 1 and 2 above (FIG. 9) to ascertain” for “FIG. 9 depicts”

[9] = test system: Saccharomyces cerevicae; assay: as above; conditions: for growth of Saccharomyces cerevisiae: Table 4, 30 hr at room temperature
Experimental: as §1, §2, §3, §4
as §2, with “Tests were conducted as similarly described for Systems 1 and 2 above (FIG. 9) to ascertain” for “FIG. 9 depicts”

[10] = test system: Candida albicans; assay: as above
Experimental: as §1, §2, §3, §4
as §2, with “Tests were conducted as similarly described for Systems 1 and 2 above (FIG. 9) to ascertain” for “FIG. 9 depicts”

[11] = test system: Escherichia coli; assay: as above
Experimental: as §1, §2, §3, §4
as §2, with “Tests were conducted as similarly described for Systems 1 and 2 above (FIG. 9) to ascertain” for “FIG. 9 depicts”

[12] = test system: Fusarium subglutinans; assay: plate bioassay of volatile test mixtures, growth inhibition; conditions: 30 hr at 22° C.; esters with 1:1 v/v propanoic acid and isobutryic acid (acids to ester 7:2 v/v), 9 ul; acids 7 ul
Experimental: as §1, §3, §4

[13] = test system: Aspergillus fumigatus; assay: as above; conditions: 30 hr at 22° C.; esters with 1:1 v/v propanoic acid and isobutryic acid (acids to ester 7:2 v/v), 9 ul; acids 7 ul
Experimental: as §1, §3, §4

[14] = test system: Aspergillus flavus; assay: as above; conditions: Table 4; 30 hr at room temperature, compared to control
Experimental: as §2
as §2, with “Tests were conducted as similarly described for Systems 1 and 2 above (FIG. 9) to ascertain” for “FIG. 9 depicts”
(§5) All testing was done according to the methods in Table 4

[15] = test system: Fusarium solani; assay: as above; conditions: Table 4; 30 hr at room temperature, compared to control
Experimental: as §2
as §2, with “Tests were conducted as similarly described for Systems 1 and 2 above (FIG. 9) to ascertain” for “FIG. 9 depicts”
as §5

[16] = 30 hr at 22° C., esters with 1:1 v/v propanoic acid and isobutryic acid (acids to ester 7:2 v/v), 9 ul, acids 7 ul
[17] = Table 4, 30 hr at room temperature
[18] = relative growth after 30 hr at 22° C., esters with 1:1 v/v propanoic acid and isobutryic acid (7:2 v/v), 9 ul, acids 7 ul

Molecule	percent inhibition of the growth of Sclerotinia sclerotiorum [1]	percent inhibition of the growth of Verticillium dahliae [2]	percent inhibition of the growth of Rhizoctonia solani [3]	percent inhibition of the growth of Phytophthora cinnamomi [4]	percent inhibition of the growth of Pythium ultimum [5]	percent inhibition of the growth of Trichoderma viridae [6]	percent inhibition of the growth of Cercospora beticola [7]	growth of Bacillus subtilus [8, 17]	growth of Saccharomyces cerevisiae [9]	growth of Candida albicans [10, 17]	growth of Escherichia coli [11, 17]	percent inhibition of the growth of Aspergillus flavus [14]	percent inhibition of the growth of Fusarium solani [15]	other results
CCC(=O)O [Propanoic Acid, reference compound]	0%	83%	81%	38%	100%	45%	66%	No	Yes	Medium	No	52%	17%	inhibition of Sclerotinia sclerotiorum [1, 16]: 60%; inhibition of Verticillium dahliae [2, 16]: 96%; inhibition of Rhizoctonia solani [3, 16]: 100%; inhibition of Phytophthora cinnamomi [4, 16]: 67%; inhibition of Pythium ultimum [5, 16]: 91%; inhibition of Trichoderma viridae [6, 16]: 53%; inhibition of Cercospora beticola [7, 16]: 95%; growth of Bacillus subtilus [8, 18]: No Growth; growth of Saccharomyces cerevicae [9, 18]: Growth Observed; growth of Candida albicans [10, 18]: Growth Observed; growth of Escherichia coli [11, 18]: No Growth; inhibition of Fusarium subglutinans [12]: 83%; inhibition of Aspergillus fumigatus [13]: 80%
Isoamyl Hexonates [reference compound]	66%	0%	0%	13%	28%	13%	83%	Yes	Yes	Yes	Yes	66%	83%	
